Results reported in PubChem BioAssay AID330 (DTP/NCI, 2004).
“And” between values parts separate entries of the source, which are not always exact repeats. Equal values may be shown once. Toxic doses and inconclusive results are not listed.

Tested on: P388 leukemia ip, CD2F1 mice, survival T/C
Assay: NCI In Vivo Anticancer Drug Screen. Data for tumor model P388 Leukemia (intraperitoneal) in CD2F1 (CDF1) mice
Details: endpoint: median survival time, higher = longer survival
In short: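 Mice carrying the transplanted tumor received test compound or vehicle. Survival was recorded in each group, and the value is the treated-group measurement divided by that of the vehicle-treated control group.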

[1] = dose: 50.0 mg/kg/injection, schedule: Q01DX005 (ip), vehicle: Klucel (hydroxypropylcellulose) (HPC)
[2] = dose: 100.0 mg/kg/injection, schedule: Q01DX005 (ip), vehicle: Klucel (hydroxypropylcellulose) (HPC)
[3] = dose: 200.0 mg/kg/injection, schedule: Q01DX005 (ip), vehicle: Klucel (hydroxypropylcellulose) (HPC)
[4] = dose: 60.0 mg/kg/injection, schedule: Q01DX005 (ip), vehicle: saline with Tween-80
[5] = dose: 120.0 mg/kg/injection, schedule: Q01DX005 (ip), vehicle: saline with Tween-80
[6] = dose: 240.0 mg/kg/injection, schedule: Q01DX005 (ip), vehicle: saline with Tween-80
[7] = dose: 50.0 mg/kg/injection, schedule: Q01DX005 (ip), vehicle: saline
[8] = dose: 50.0 mg/kg/injection, schedule: Q01DX005 (ip), vehicle: saline with Tween-80
[9] = dose: 100.0 mg/kg/injection, schedule: Q01DX005 (ip), vehicle: saline with Tween-80
[10] = dose: 200.0 mg/kg/injection, schedule: Q01DX005 (ip), vehicle: saline with Tween-80
[11] = dose: 50.0 mg/kg/injection, schedule: Q01DX009 (ip), vehicle: saline
[12] = dose: 100.0 mg/kg/injection, schedule: Q01DX009 (ip), vehicle: saline
[13] = dose: 200.0 mg/kg/injection, schedule: Q01DX009 (ip), vehicle: saline
[14] = dose: 50.0 mg/kg/injection, schedule: Q01DX009 (ip), vehicle: saline with Tween-80
[15] = dose: 12.5 mg/kg/injection, schedule: Q01DX009 (ip), vehicle: Klucel (hydroxypropylcellulose) (HPC)

## CNC(=O)CCC(NS(=O)(=O)c1ccccc1)C(=O)O (stereo not given)
[1]
  T/C: 107 % of control
[2]
  T/C: 96 % of control
[3]
  T/C: 95 % of control

## CCN(CC)c1ccc2c(C)cc(=O)oc2c1
dose: 25.0 mg/kg/injection, schedule: Q04DX003 (ip), vehicle: DMSO
  T/C: 92 % of control
dose: 50.0 mg/kg/injection, schedule: Q04DX003 (ip), vehicle: DMSO
  T/C: 88 % of control

## Cc1c(C(=O)O)no[n+]1[O-]
dose: 60.0 mg/kg/injection, schedule: Q01DX005 (ip), vehicle: saline
  T/C: 101 % of control
dose: 120.0 mg/kg/injection, schedule: Q01DX005 (ip), vehicle: saline
  T/C: 93 % of control
dose: 240.0 mg/kg/injection, schedule: Q01DX005 (ip), vehicle: saline
  T/C: 93 % of control

## CCOc1ccc2ccc3ccc(OCC)nc3c2n1
[4]
  T/C: 89 % of control
[5]
  T/C: 98 % of control
[6]
  T/C: 95 % of control

## COCCCN=C(N)N
dose: 50.0 mg/kg/injection, schedule: Q04DX003 (ip), vehicle: saline
  T/C: 109 % of control
dose: 100.0 mg/kg/injection, schedule: Q04DX003 (ip), vehicle: saline
  T/C: 100 % of control
dose: 200.0 mg/kg/injection, schedule: Q04DX003 (ip), vehicle: saline
  T/C: 95 % of control

## COc1nc(=O)n(C2CCCO2)cc1Br (stereo not given)
[4]
  T/C: 96 % of control
[5]
  T/C: 102 % of control
[6]
  T/C: 100 % of control

## CCN(CC)CCCCCCNc1cc(OC)c(Cl)c2cccnc12
dose: 6.25 mg/kg/injection, schedule: Q01DX005 (ip), vehicle: saline
  T/C: 102 % of control
dose: 12.5 mg/kg/injection, schedule: Q01DX005 (ip), vehicle: saline
  T/C: 95 % of control
dose: 25.0 mg/kg/injection, schedule: Q01DX005 (ip), vehicle: saline
  T/C: 98 % of control
[7]
  T/C: 115 % of control

## COc1ccc(C(C)c2cc3c(cc2OC)OCO3)c(C)c1 (stereo not given)
[1]
  T/C: 116 % of control
[2]
  T/C: 92 % of control
[3]
  T/C: 119 % of control

## O=C(NN1C(=O)CSC1c1ccc(F)cc1)c1ccncc1 (stereo not given)
[4]
  T/C: 99 % of control
[5]
  T/C: 100 % of control
[6]
  T/C: 92 % of control

## COc1ccc2nccc(/C=C/c3ccnc4ccc(OC)cc34)c2c1
[8]
  T/C: 103 % of control
[9]
  T/C: 103 % of control
[10]
  T/C: 100 % of control

## O=C(O)Cc1ccc(-c2cn3c(n2)sc2ccccc23)cc1
[11]
  T/C: 108 % of control
[12]
  T/C: 107 % of control
[13]
  T/C: 112 % of control

## Cc1ccc(S(=O)(=O)NC(CNC(N)=O)C(=O)O)cc1 (stereo not given)
dose: 12.5 mg/kg/injection, schedule: Q01DX009 (ip), vehicle: other
  T/C: 107 % of control
dose: 25.0 mg/kg/injection, schedule: Q01DX009 (ip), vehicle: other
  T/C: 101 % of control
dose: 50.0 mg/kg/injection, schedule: Q01DX009 (ip), vehicle: other
  T/C: 100 % of control
dose: 100.0 mg/kg/injection, schedule: Q01DX009 (ip), vehicle: other
  T/C: 97 % of control
dose: 200.0 mg/kg/injection, schedule: Q01DX009 (ip), vehicle: other
  T/C: 96 % of control

## [C-]#[N+]C1CC2CCC1C2.[C-]#[N+]C1CC2CCC1C2.[C-]#[N+]C1CC2CCC1C2.[C-]#[N+]C1CC2CCC1C2.[C-]#[N+]C1CC2CCC1C2.[C-]#[N+]C1CC2CCC1C2.[Mn] (stereo not given)
dose: 0.19 mg/kg/injection, schedule: Q01DX009 (ip), vehicle: saline with Tween-80
  T/C: 115 % of control
dose: 0.38 mg/kg/injection, schedule: Q01DX009 (ip), vehicle: saline with Tween-80
  T/C: 156 % of control

## C/C(=C/c1ccccc1)C(=O)C1C(c2ccccc2)CC(O)C(C)C1c1ccccc1 (stereo not given)
dose: 100.0 mg/kg/injection, schedule: Q04DX003 (ip), vehicle: Klucel (hydroxypropylcellulose) (HPC)
  T/C: 93 % of control
dose: 200.0 mg/kg/injection, schedule: Q04DX003 (ip), vehicle: Klucel (hydroxypropylcellulose) (HPC)
  T/C: 88 % of control

## O=C(/C(Br)=C/c1ccccc1)/C(Br)=C/c1ccccc1
dose: 12.5 mg/kg/injection, schedule: Q01DX001 (ip), vehicle: saline with Tween-80
  T/C: 100 % of control
dose: 25.0 mg/kg/injection, schedule: Q01DX001 (ip), vehicle: saline with Tween-80
  T/C: 100 % of control
dose: 50.0 mg/kg/injection, schedule: Q01DX001 (ip), vehicle: saline with Tween-80
  T/C: 88 % of control

## CC1(C)N=C(N/N=C/c2ccccc2)SP1(=O)NNc1ncccn1 (stereo not given)
dose: 60.0 mg/kg/injection, schedule: Q01DX005 (ip), vehicle: Klucel (hydroxypropylcellulose) (HPC)
  T/C: 101 % of control
dose: 120.0 mg/kg/injection, schedule: Q01DX005 (ip), vehicle: Klucel (hydroxypropylcellulose) (HPC)
  T/C: 103 % of control

## O=c1ccc(=O)n(-c2ccccc2)[nH]1
dose: 6.25 mg/kg/injection, schedule: Q01DX009 (ip), vehicle: saline with Tween-80
  T/C: 114 % of control
dose: 12.5 mg/kg/injection, schedule: Q01DX009 (ip), vehicle: saline with Tween-80
  T/C: 100 % of control
dose: 25.0 mg/kg/injection, schedule: Q01DX009 (ip), vehicle: saline with Tween-80
  T/C: 118 % of control
[14]
  T/C: 119 % of control

## CC(=O)c1nn(-c2ccccc2)c(=O)cc1C
[8]
  T/C: 100 % of control
[9]
  T/C: 98 % of control
[10]
  T/C: 100 % of control

## O=C1C[C@]2(CC3CO3)C[C@@H](C=CC23OCCO3)O1 (stereo not given in full)
dose: 1.5 mg/kg/injection, schedule: Q01DX005 (ip), vehicle: acid diluted with saline
  T/C: 99 % of control
dose: 3.0 mg/kg/injection, schedule: Q01DX005 (ip), vehicle: acid diluted with saline
  T/C: 102 % of control
dose: 6.0 mg/kg/injection, schedule: Q01DX005 (ip), vehicle: acid diluted with saline
  T/C: 102 % of control
dose: 12.0 mg/kg/injection, schedule: Q01DX005 (ip), vehicle: acid diluted with saline
  T/C: 107 % of control

## Cc1cc(OCCCCCCC[N+](C)(C)Cc2ccc([N+](=O)[O-])o2)c(C(C)C)cc1Cl
dose: 12.5 mg/kg/injection, schedule: Q04DX003 (ip), vehicle: saline
  T/C: 99 % of control
dose: 25.0 mg/kg/injection, schedule: Q04DX003 (ip), vehicle: saline
  T/C: 92 % of control

## O=C1c2ccc3ccccc3c2CN2C(=O)CCC12 (stereo not given)
[4]
  T/C: 105 % of control
[5]
  T/C: 103 % of control
[6]
  T/C: 104 % of control

## CCCCCCC(=O)/C=C/c1ccc(F)cc1
[8]
  T/C: 101 % of control
[9]
  T/C: 106 % of control
[10]
  T/C: 100 % of control

## Brc1cc2ccccc2c2ccccc12
[14]
  T/C: 99 % of control
dose: 100.0 mg/kg/injection, schedule: Q01DX009 (ip), vehicle: saline with Tween-80
  T/C: 99 % of control
dose: 200.0 mg/kg/injection, schedule: Q01DX009 (ip), vehicle: saline with Tween-80
  T/C: 93 % of control
dose: 400.0 mg/kg/injection, schedule: Q01DX009 (ip), vehicle: saline with Tween-80
  T/C: 93 % of control

## NC(=O)c1csc([C@@H](O)Cc2ccccc2)n1
[4]
  T/C: 105 % of control
[5]
  T/C: 106 % of control
[6]
  T/C: 106 % of control

## COc1cc(C2=N/C(=C/c3cccc(O)c3O)C(=O)O2)cc(OC)c1OC
dose: 6.25 mg/kg/injection, schedule: Q01DX009 (ip), vehicle: Klucel (hydroxypropylcellulose) (HPC)
  T/C: 101 % of control
[15]
  T/C: 96 % of control

## CC(O)C(=O)NCO (stereo not given)
[7]
  T/C: 104 % of control
dose: 100.0 mg/kg/injection, schedule: Q01DX005 (ip), vehicle: saline
  T/C: 100 % of control
dose: 200.0 mg/kg/injection, schedule: Q01DX005 (ip), vehicle: saline
  T/C: 100 % of control

## CCCCOP(O)(=S)OCCCC.[Ho]
dose: 66.0 mg/kg/injection, schedule: Q01DX001 (ip), vehicle: saline with Tween-80
  T/C: 100 % of control
dose: 100.0 mg/kg/injection, schedule: Q01DX001 (ip), vehicle: saline with Tween-80
  T/C: 98 % of control
dose: 150.0 mg/kg/injection, schedule: Q01DX001 (ip), vehicle: saline with Tween-80
  T/C: 98 % of control
dose: 200.0 mg/kg/injection, schedule: Q01DX001 (ip), vehicle: saline with Tween-80
  T/C: 90 % of control
dose: 400.0 mg/kg/injection, schedule: Q01DX001 (ip), vehicle: saline with Tween-80
  T/C: 90 % of control

## N#C/C(=C\C=C\c1ccccc1)c1nc(-c2ccc(Cl)cc2)cs1
[11]
  T/C: 91 % of control
[12]
  T/C: 91 % of control
[13]
  T/C: 88 % of control

## Cc1ccc2c(c1)sc1nnc(S(C)(=O)=O)n12
[15]
  T/C: 118 % of control
dose: 25.0 mg/kg/injection, schedule: Q01DX009 (ip), vehicle: Klucel (hydroxypropylcellulose) (HPC)
  T/C: 110 % of control
dose: 50.0 mg/kg/injection, schedule: Q01DX009 (ip), vehicle: Klucel (hydroxypropylcellulose) (HPC)
  T/C: 102 % of control and 118 % of control
dose: 100.0 mg/kg/injection, schedule: Q01DX009 (ip), vehicle: Klucel (hydroxypropylcellulose) (HPC)
  T/C: 111 % of control
